Patent US20180250393A1, “MANIPULATION OF T CELL AND MAST CELL ACTIVATION BY PIK3IP1” (UNIVERSITY OF PITTSBURGH-OF THE COMMONWEALTH SYSTEM OF …, priority 2017, published 2018)

Tested on: Naïve T cells from WT and KO mice
Test: Th1 differentiation assay with PI3K/Akt pathway inhibitors, IFN-γ expression by flow cytometry
Format: cell-based, mouse
Conditions: Th1 conditions, all concentrations
Experimental: (A) Naïve T cells from WT and KO mice were cultured under Th1 conditions for three days in the presence of PI3K inhibitors (Akti, LY294002 and IC-87114), re-stimulated with PMA/Ionomycin and analyzed for IFNγ and CD25 expression. (B) Quantitation of A. p values were calculated using two-way ANOVA with Sidak's multiple comparisons test. p values are represented with the following symbols: *0.01-0.05, **0.001-0.01, ***<0.001. Data are representative of more than three experiments.
CD4 T cells from spleens and lymph nodes of naïve mice were purified by magnetic separation using the Miltenyi Biotec naïve CD4 T cell isolation kit (Cat#130-104-453). The purity of the final cell population was >90%. […] Cells were then harvested and analyzed by flow cytometry.
In order to determine whether the difference in Th1 polarization was actually due to the absence of PI3K modulation by TrIP, the Th1 differentiation assay was performed on WT and KO T cells with the addition of moderate concentrations of PI3K/Akt pathway inhibitors. […] At the end of culture, cells were re-stimulated with PMA/Ionomycin and evaluated by flow cytometry for IFN-γ expression. […]

SMILES: Cc1ccccc1-n1c(Cn2cnc3c(N)ncnc32)nc2cccc(C)c2c1=O [IC-87114]
- relative potency among the three inhibitors for IFN-γ production: most potent inhibitor at all concentrations
